Measured values reported in US11179348B2, “Combination comprising pterostilbene for the treatment of cancer” (FUNDACIÓN UNIVERSIDAD CATÓLICA DE VALENCIA SAN VICENTE …, priority 2015, dated 2021).

Key:
[1] = tested on: MeWo melanoma cells; assay: Nrf2- and redox state-related enzyme activities and metabolites in MeWo cells growing in vivo; design: species or system human; settings: in vivo +Pter, day 35
Description: Transfection of the Red Fluorescence Protein.
First the pDsRed-2 vector (Clontech Laboratories Inc., Palo Alto, Calif.) was used, as previously described for A375 melanoma cells (Mena, S. et al. J Transl Med 10, 8 (2012)), to engineer A2058, MeWo and MelJuso melanoma clones stably expressing the RFP. Isolation of A2058-RFP, MeWo-RFP or MelJuso-RFP cells from the growing xenografts was performed by laser microdissection and high-performance cell sorting as previously described in detail (Mena, S. et al. J Transl Med 10, 8 (2012)).
(§1) To measure enzyme activity, isolated tumor cells were homogenized in 0.1 M phosphate buffer (pH 7.2) at 4° C. GCL and GSS activities were measured as described previously (Obrador, E. et al. Hepatology 35, 74-81 (2002)). GPX (selenium dependent) activity was measured as described by Flohé and Gunzler (Flohe, L. & Gunzler, W. A. Methods Enzymol 105, 114-121 (1984)) using H2O2 as a substrate. GSR activity was determined as described by Akerboom and Sies (Akerboom, T. P. et al, Bull Eur Physiopathol Respir 17 Suppl, 221-227 (1981)). GGT activity was measured as described previously (Obrador, E. et al. Hepatology 35, 74-81 (2002)). GST activity was measured using an assay kit from Sigma. TXNRD activity, defined by the concentration of sodium-lipoate (disulfide) reduced to dehydrolipoate (dithiol) per milligram protein, was measured as previously described (Javvadi, P. et al. Cancer Res 70, 1941-1950 (2010)). SOD activity was measured as described by Flohé and Otting (Flohe, L. & Otting, F. Methods Enzymol 105, 93-104 (1984).) using 2 mM cyanide in the assay medium to distinguish mangano-type enzyme (SOD2) from the cuprozinc type (SOD1). CAT activity was analyzed as described by Aebi (Aebi, H. Methods Enzymol 105, 121-126 (1984)). NOX activity was measured by chemiluminescence following the methodology of Wind et al. (Wind, S. et al. Comparative pharmacology of chemically distinct NADPH oxidase inhibitors. Br J Pharmacol 161, 885-898 (2010)). Protein concentration was determined with the Pierce BCA protein assay (Fisher Scientific, Waltham, Mass.).
Measurement of H2O2 and O2^⋅−.
Quantitative measurement of H2O2 and flow cytometry determination of O2^⋅− generation were performed as previously described (Benlloch, M. et al. J Biol Chem 281, 69-79 (2006)).
(§2) GSH, GSSG, NADP^+ and NADPH Determination.
(§3) GSH and GSSG were determined, following procedures previously described (Obrador, E. et al. PLoS One 9, e96466 (2014)), by LC/MS using the same equipment described above for pterostilbene determination. Cell processing was performed according to published methodology, where rapid N-ethylmaleimide derivatization was used to prevent GSH auto-oxidation (Asensi, M. et al. Anal Biochem 217, 323-328 (1994)). NADP^+ and NADPH were quantitated using an assay kit from Sigma (St. Louis, Mo.).

[2] = tested on: A549 cells; assay: GSH levels and glutathione- and oxidative stress-related enzyme activities in A549 cells growing in vivo; design: species or system human; settings: A549, in vivo Pter, day 35
Description: as §1, §2, §3
Isolation of Tumor Cells from Mouse Xenografts Using Enzymatic Digestion and a double Ficoll gradient.
To maximize the amount of isolated cells, avoiding the use of RFP-transfected cells and subsequent laser microdissection, an alternative methodology was set up. To maximize cell yield and viability the following combination of enzymes was used: collagenase III (200 U/ml; Sigma-Aldrich), DNase I (200 U/ml; Sigma-Aldrich) and trypsin (5 mg/ml; Invitrogen), and a non-enzymatic dissociation buffer (NEDB, Invitrogen). Briefly, mice were killed, and tumors were removed (avoiding skin, muscle and fat) into cold culture media and processed immediately. The tumors were minced into 1-3 mm fragments, which were then incubated with the dissociation solution (see above) for 30 min at 37° C. The tumor fragments were mixed up and down every 10 min using a […] micropipette with a tip cut to a diameter adapted to tissue fragment size. After each incubation period, the fragments were filtered through a […] nylon mesh cell strainer (BD Biosciences, San Diego, Calif., USA). The released cells were centrifuged at 1200 r.p.m. for 2 min and stored in cold CO2-independent medium with 30% FCS at […]. Fresh dissociation solution was added to the remaining tissue fragments for 30 min. Dissociation was stopped when no additional cells were released. The fragments were pushed through a sieve and all cells from all incubation periods were pooled and counted.
The dissociated cells were layered onto a double Ficoll gradient (Histopaque; Sigma-Aldrich; densities 1.077 and 1.119) and spun at 700 g for 30 min at room temperature. Cells removed from both interfaces were pooled and washed two times in CO2-independent medium and stored at 4° C. Debris and red blood cell elimination was improved with the dual-density gradient. […]

## COc1cc(/C=C/c2ccc(O)cc2)cc(OC)c1 [Pter, trans-3,5-dimethoxy-4′-hydroxystilbene]
[1]
  CAT: 1.6 ± 0.4 mU/10^6 cells
  G6PDH: 266 ± 39 mU/10^6 cells
  GCL: 35 ± 12 mU/10^6 cells
  GGT: 16.0 ± 2.4 mU/10^6 cells
  GPX: 2.8 ± 1.0 mU/10^6 cells
  GSH: 7.3 ± 1.7 nmol/10^6 cells
  GSH/GSSG: 73 ± 11
  GSR: 4.9 ± 1.2 mU/10^6 cells
  GSS: 7.4 ± 1.6 mU/10^6 cells
  GSSG: 0.1 ± 0.03 nmol/10^6 cells
  GST: 6.5 ± 1.3 mU/10^6 cells
  H2O2: 0.7 ± 0.2 nmol/10^6 cells × min
  IDH: 1.5 ± 0.4 U/10^6 cells
  ME: 32 ± 11 mU/10^6 cells
  NADPH: 0.05 ± 0.002 nmol/mg prot
  NADPH/NADP^+: 1.2 ± 0.2
  NADP^+: 0.04 ± 0.01 nmol/mg prot
  NOX: 132 ± 25 R.L.U./10^6 cells
  O2^−: 3.5 ± 0.7 ΔFL1, a.u.
  SOD1: 0.5 ± 0.2 U/10^6 cells
  SOD2: 0.1 ± 0.05 U/10^6 cells
  TXN: 0.8 ± 0.2 μg/10^6 cells
  TXNRD: 0.9 ± 0.2 U/10^6 cells
[2]
  CAT: 0.3 ± 0.01 mU/10^6 cells
  GCL: 39 ± 16 mU/10^6 cells
  GSH: 4.7 ± 1.5 nmol/10^6 cells
  GSS: 3.9 ± 1.0 mU/10^6 cells
  GSSG: 0.2 ± 0.07 nmol/10^6 cells
  SOD1: 0.5 ± 0.1 U/10^6 cells
  SOD2: 0.04 ± 0.01 U/10^6 cells
